# Numbers after ± are expanded uncertainties.
# How the values were obtained:
# [1] = Molar enthalpy of transition or fusion; details: Crystal; DSC
# [2] = Crystal; DTA
Molar enthalpy of transition or fusion [1] [kcal/mol],Normal melting temperature [2] [°C],SMILES
6.86 ± 0.311,31.10 ± 4,CCCCCCCCCC(=O)O [decanoic acid]
15.1 ± 0.669,69.00 ± 4,CCCCCCCCCCCCCCCCCC(=O)O [octadecanoic acid]
10.2 ± 0.454,53.70 ± 4,CCCCCCCCCCCCCC(=O)O [tetradecanoic acid]

# Source: the NIST ThermoML archive (doi:10.1016/j.tca.2017.03.027)
